Measured values: patent US10556905B2, “Processes for preparing a diazabicyclooctane compound” (priority 2012, dated 2020)
Values after ≈ are worked out from the molar mass of the structure shown. Where two headings read alike, the source gives them in different places.

What was measured:
[1] = tested on: sensitive tuberculosis (H37Rv); assay: Anti-tubercle bacillus activity, liquid medium dilution MIC; assay type: cell-based; details: for MIC: Mycobacterium tuberculosis, 168 h, alone, 7 days at 37° C., read-out: antibacterial activity (MIC) of β-lactam agent alone
E. coli MSC19503 = assay: microbe, parasite or virus in culture; assay type: cell-based; details: Escherichia coli, alone, CTX-M-15 (ESBL) and OXA-1 producing E. coli, agar plate dilution, read-out: antibacterial activity (MIC) of PIPC alone
[2] = tested on: K. pneumoniae ATCCBAA-1705; assay: microbe, parasite or virus in culture; details: Klebsiella pneumoniae, ATCCBAA1705, read-out: antibacterial activity (MIC) of PIPC alone
[3] = tested on: P. aeruginosa ATCCBAA-47CR; assay: microbe, parasite or virus in culture; assay type: cell-based; details: Pseudomonas aeruginosa, ATCCBAA47CR; alone; AmpC constitutively-expressing P. aeruginosa; agar plate dilution; read-out: antibacterial activity (MIC) of PIPC alone
OXA-2 = biological target: T1, OXA-2 (Escherichia coli, UniProt P0A1V9); assay: biochemical; parameters: species or system P. aeruginosa
T1 construct: AmpC, TEM-1, KPC-2 or OXA-2 domain excluding signal peptide was amplified with PCR; made in house; host or cells: Escherichia coli BL21 (DE3), pET-28b(+)

TEM-1 = biological target: T2, TEM-1 (Escherichia coli, UniProt P62593); assay: β-Lactamase inhibitory activity (nitrocefin hydrolysis), TEM-1; assay type: biochemical; details: TEM-1 0.1 nM, 100 μM nitrocefin, pre-incubation 30° C. 10 minutes
T2 construct: AmpC, TEM-1, KPC-2 or OXA-2 domain excluding signal peptide was amplified with PCR; made in house; host or cells: Escherichia coli BL21 (DE3), pET-28b(+)
Procedure, shortened: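 Scored as letter classes from <0.1 μM (A) through ≥10 μM (E). Nitrocefin breakdown (100 μM final) by E. coli-expressed, signal-peptide-free TEM-1 was followed at 492 nm after 20 min at 30° C. The buffer was 50 mM phosphate pH 7.0, 10 μg/mL BSA, 2.5% DMSO.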

AmpC = biological target: T3, AmpC (Pseudomonas aeruginosa, UniProt P24735); assay: biochemical
T3 construct: AmpC, TEM-1, KPC-2 or OXA-2 domain excluding signal peptide was amplified with PCR; made in house; host or cells: Escherichia coli BL21 (DE3), pET-28b(+)

KPC-2 = biological target: T4, KPC-2 (Klebsiella pneumoniae, UniProt Q9F663); assay: β-Lactamase inhibitory activity (nitrocefin hydrolysis), KPC-2; assay type: biochemical; details: KPC-2 0.5 nM, 100 μM nitrocefin, pre-incubation 30° C. 10 minutes
T4 construct: AmpC, TEM-1, KPC-2 or OXA-2 domain excluding signal peptide was amplified with PCR; made in house; host or cells: Escherichia coli BL21 (DE3), pET-28b(+)

[4] = OXA-2 2 nM, 100 μM nitrocefin, pre-incubation 30° C. 10 minutes, read-out: β-Lactamase inhibitory activity OXA-2 (IC50)

T2 sequence (P62593 24-286 limits assumed): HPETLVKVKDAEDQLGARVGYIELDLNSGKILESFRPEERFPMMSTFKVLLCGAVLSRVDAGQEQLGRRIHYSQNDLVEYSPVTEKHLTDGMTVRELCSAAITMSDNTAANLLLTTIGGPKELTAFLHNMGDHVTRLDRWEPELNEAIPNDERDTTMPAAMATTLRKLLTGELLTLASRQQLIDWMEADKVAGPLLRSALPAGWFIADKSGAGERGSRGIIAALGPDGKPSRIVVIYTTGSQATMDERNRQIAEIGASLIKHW
T4 sequence (Q9F663 25-293, looked up): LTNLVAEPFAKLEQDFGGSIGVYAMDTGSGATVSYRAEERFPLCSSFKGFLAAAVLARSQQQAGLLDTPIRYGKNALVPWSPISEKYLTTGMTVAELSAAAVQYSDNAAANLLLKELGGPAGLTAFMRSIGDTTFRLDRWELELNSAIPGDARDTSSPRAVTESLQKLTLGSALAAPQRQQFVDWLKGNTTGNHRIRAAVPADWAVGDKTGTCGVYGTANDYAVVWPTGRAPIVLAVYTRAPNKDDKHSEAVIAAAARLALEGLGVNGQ
T3 sequence (P24735 27-397): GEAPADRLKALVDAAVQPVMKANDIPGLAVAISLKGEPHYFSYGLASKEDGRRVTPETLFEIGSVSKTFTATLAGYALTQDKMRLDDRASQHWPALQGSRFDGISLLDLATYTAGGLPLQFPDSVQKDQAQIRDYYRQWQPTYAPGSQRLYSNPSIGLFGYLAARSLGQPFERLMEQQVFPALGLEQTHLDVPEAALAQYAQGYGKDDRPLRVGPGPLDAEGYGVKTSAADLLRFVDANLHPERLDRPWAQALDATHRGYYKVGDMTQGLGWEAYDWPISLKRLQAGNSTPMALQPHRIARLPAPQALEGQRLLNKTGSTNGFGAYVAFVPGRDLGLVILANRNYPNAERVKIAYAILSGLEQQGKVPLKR
T1 sequence (P0A1V9 22-275): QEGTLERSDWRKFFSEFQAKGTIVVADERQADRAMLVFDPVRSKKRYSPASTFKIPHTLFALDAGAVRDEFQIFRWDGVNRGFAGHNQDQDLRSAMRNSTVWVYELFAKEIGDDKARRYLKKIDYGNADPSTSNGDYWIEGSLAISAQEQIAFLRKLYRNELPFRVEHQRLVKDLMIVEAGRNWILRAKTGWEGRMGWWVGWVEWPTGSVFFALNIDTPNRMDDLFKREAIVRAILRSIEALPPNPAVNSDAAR

| SMILES | IC50 (OXA-2; [4]) [µM] | IC50 (TEM-1) [µM] | IC50 (AmpC) [µM] | IC50 (KPC-2) [µM] | IC50 (OXA-2) [µM] | also measured |
| --- | --- | --- | --- | --- | --- | --- |
| C[C@@H](O)[C@H]1C(=O)N2C(C(=O)O)=C(S[C@@H]3CN[C@H](C(=O)N(C)C)C3)[C@H](C)[C@H]12 [MEPM, meropenem, reference compound] | – | – | – | – | – | MIC [1]: 1 µg/mL (≈ 2.61 µM) |
| CC1(C)S[C@@H]2[C@H](NC(=O)[C@H](N)c3ccccc3)C(=O)N2[C@H]1C(=O)O [ABPC, ampicillin, reference compound] | – | – | – | – | – | MIC [1]: 16 µg/mL (≈ 45.8 µM) |
| CCN1CCN(C(=O)N[C@@H](C(=O)N[C@@H]2C(=O)N3[C@@H]2SC(C)(C)[C@@H]3C(=O)O)c2ccccc2)C(=O)C1=O [PIPC, piperacillin] | – | – | – | – | – | MIC (E. coli MSC19503): > 128 µg/mL; MIC [2]: > 128 µg/mL; MIC [3]: 64 µg/mL (≈ 124 µM) |
| CC1(C)S[C@@H]2[C@H](NC(=O)[C@H](N)c3ccc(O)cc3)C(=O)N2[C@H]1C(=O)O [AMPC, amoxicillin, reference compound] | – | – | – | – | – | MIC [1]: 16 µg/mL (≈ 43.8 µM) |
| C[C@@H](O)[C@H]1C(=O)N2C(C(=O)[O-])=C(SC3Cn4cnc[n+]4C3)[C@H](C)[C@H]12 (some centres unmarked) [BIPM, biapenem, reference compound] | – | – | – | – | – | MIC [1]: 1 µg/mL (≈ 2.85 µM) |
| O=C(NOCC1CCNCC1)[C@@H]1CC[C@@H]2CN1C(=O)N2OS(=O)(=O)O [Example 85, (2S,5R)-7-Oxo-N-(piperidine-4-ylmethoxy)-6-(sulfooxy)-1,6-diazabicyclo[3.2.1]octane-2-carboxamide] | 0.1 to 1 | < 0.1 | < 0.1 | 0.1 to 1 | – | – |
| O=C(NNC(=O)[C@@H]1CC[C@@H]2CN1C(=O)N2OS(=O)(=O)O)[C@@H]1C[C@H](CC2CC2)CCN1 [Example 40, (2S,5R)—N′-{[(2S,4R)-4-Cyclopropylmethylpiperidine-2-yl]carbonyl}-7-oxo-6-(sulfooxy)-1,6-diazabicyclo[3.2.1]octane-2-carbohydrazide] | 1 to 3 | < 0.1 | 0.1 to 1 | 3 to 10 | – | – |
| O=C1CC[C@@H](C(=O)NNC(=O)[C@@H]2CC[C@@H]3CN2C(=O)N3OS(=O)(=O)O)N1 [Example 41, Sodium (2S,5R)-7-oxo-N′-{[(2S)-5-oxopyrrolidin-2-yl]carbonyl}-6-(sulfooxy)-1,6-diazabicyclo[3.2.1]octane-2-carbohydrazide] | – | 0.1 to 1 | 0.1 to 1 | 1 to 3 | 3 to 10 | – |
| O=C1CC[C@H](C(=O)NNC(=O)[C@@H]2CC[C@@H]3CN2C(=O)N3OS(=O)(=O)O)N1 [Example 42, Sodium (2S,5R)-7-oxo-N′-{[(2R)-5-oxopyrrolidin-2-yl]carbonyl}-6-(sulfooxy)-1,6-diazabicyclo[3.2.1]octane-2-carbohydrazide] | – | 0.1 to 1 | 0.1 to 1 | 0.1 to 1 | 1 to 3 | – |
| NCCONC(=O)[C@@H]1CC[C@@H]2CN1C(=O)N2OS(=O)(=O)O [Example 59, (2S,5R)—N-(2-Aminoethoxy)-7-oxo-6-(sulfooxy)-1,6-diazabicyclo[3.2.1]octane-2-carboxamide] | 1 to 3 | < 0.1 | 0.1 to 1 | 0.1 to 1 | – | antibacterial activity (MIC) of ABPC in combinatorial use ([1]; ABPC + 4 μg/mL compound): 2 µg/mL; antibacterial activity (MIC) of AMPC in combinatorial use ([1]; AMPC + 4 μg/mL compound): 2 µg/mL; antibacterial activity (MIC) of BIPM in combinatorial use ([1]; BIPM + 4 μg/mL compound): 1 µg/mL; antibacterial activity (MIC) of MEPM in combinatorial use ([1]; MEPM + 4 μg/mL compound): 0.5 µg/mL; antibacterial activity (MIC) of TBPM in combinatorial use ([1]; TBPM + 4 μg/mL compound): 0.25 µg/mL |
| O=C(NOC[C@@H]1CCCNC1)[C@@H]1CC[C@@H]2CN1C(=O)N2OS(=O)(=O)O [Example 83, (2S,5R)-7-Oxo-N-[(3R)-piperidine-3-ylmethoxy]-6-(sulfooxy)-1,6-diazabicyclo[3.2.1]octane-2-carboxamide] | 0.1 to 1 | < 0.1 | < 0.1 | 0.1 to 1 | – | – |
| O=C(NNC(=O)[C@@H]1CC[C@@H]2CN1C(=O)N2OS(=O)(=O)O)c1ccncc1 [Example 46, Sodium (2S,5R)-7-oxo-N′-(pyridine-4-ylcarbonyl)-6-(sulfooxy)-1,6-diazabicyclo[3.2.1]octane-2-carbohydrazide] | – | < 0.1 | < 0.1 | 0.1 to 1 | 1 to 3 | – |
| COCC(=O)NNC(=O)[C@@H]1CC[C@@H]2CN1C(=O)N2OS(=O)(=O)O [Example 29, Sodium (2S,5R)—N′-(methoxyacetyl)-7-oxo-6-(sulfooxy)-1,6-diazabicyclo[3.2.1]octane-2-carbohydrazide] | – | < 0.1 | 0.1 to 1 | 0.1 to 1 | 3 to 10 | – |
| C[C@@H](O)[C@H]1C(=O)N2C(C(=O)O)=C(SC3CN(C4=NCCS4)C3)[C@H](C)[C@H]12 [TBPM, tebipenem, reference compound] | – | – | – | – | – | MIC [1]: 0.5 µg/mL (≈ 1.3 µM) |
| O=C(NOCC1CNC1)[C@@H]1CC[C@@H]2CN1C(=O)N2OS(=O)(=O)O [Example 82, (2S,5R)—N-(Azetidin-3-ylmethoxy)-7-oxo-6-(sulfooxy)-1,6-diazabicyclo[3.2.1]octane-2-carboxamide] | 0.1 to 1 | < 0.1 | < 0.1 | 0.1 to 1 | – | – |
| COCCONC(=O)[C@@H]1CC[C@@H]2CN1C(=O)N2OS(=O)(=O)O [Example 96, Sodium (2S,5R)—N-(2-methoxyethoxy)-7-oxo-6-(sulfooxy)-1,6-diazabicyclo[3.2.1]octane-2-carboxamide] | – | < 0.1 | < 0.1 | 0.1 to 1 | 1 to 3 | – |
| CCOC(=O)NNC(=O)[C@@H]1CC[C@@H]2CN1C(=O)N2OS(=O)(=O)O [Example 52, Sodium ethyl 2-{[(2S,5R)-7-oxo-6-(sulfooxy)-1,6-diazabicyclo[3.2.1]oct-2-yl]carbonyl}hydrazinecarboxylate] | – | < 0.1 | 0.1 to 1 | 0.1 to 1 | 1 to 3 | – |
| CNCCONC(=O)[C@@H]1CC[C@@H]2CN1C(=O)N2OS(=O)(=O)O [Example 61, (2S,5R)—N-[2-(Methylamino)ethoxy]-7-oxo-6-(sulfooxy)-1,6-diazabicyclo[3.2.1]octane-2-carboxamide] | 1 to 3 | < 0.1 | 0.1 to 1 | 1 to 3 | – | – |
| O=C(NN1CCCC1=O)[C@@H]1CC[C@@H]2CN1C(=O)N2OS(=O)(=O)O (racemic) [Example 33, Sodium (2SR,5RS)-7-oxo-N-(2-oxopyrrolidin-1-yl)-6-(sulfooxy)-1,6-diazabicyclo[3.2.1]octane-2-carboxamide] | – | < 0.1 | 0.1 to 1 | 0.1 to 1 | 3 to 10 | – |
| O=C(NOC[C@@H]1CCCN1)[C@@H]1CC[C@@H]2CN1C(=O)N2OS(=O)(=O)O [Example 76, (2S,5R)-7-Oxo-N-[(2S)-pyrrolidin-2-ylmethoxy]-6-(sulfooxy)-1,6-diazabicyclo[3.2.1]octane-2-carboxamide] | 0.1 to 1 | < 0.1 | 0.1 to 1 | 0.1 to 1 | – | – |
| O=C(NNC(=O)[C@@H]1CC[C@@H]2CN1C(=O)N2OS(=O)(=O)O)Nc1ccccc1 (racemic) [Example 49, Sodium 2-{[(2SR,5RS)-7-oxo-6-(sulfooxy)-1,6-diazabicyclo[3.2.1]oct-2-yl]carbonyl}-N-phenylhydrazinecarboxamide] | – | < 0.1 | 0.1 to 1 | 0.1 to 1 | 3 to 10 | – |
| CN(C)C(=O)CONC(=O)[C@@H]1CC[C@@H]2CN1C(=O)N2OS(=O)(=O)O [Example 89, Sodium (2S,5R)—N-[2-(dimethylamino)-2-oxoethoxy]-7-oxo-6-(sulfooxy)-1,6-diazabicyclo[3.2.1]octane-2-carboxamide] | – | < 0.1 | < 0.1 | < 0.1 | 0.1 to 1 | – |
